Experimental findings from patent US20260265256A1 (IMPACT THERAPEUTICS (SHANGHAI), INC., priority 2023, published 2026) are described below.

One experiment has as its system MDA-MB-436 cells. Nature of the experiment: Growth inhibition assay against BRCA mutant human breast cancer MDA-MB-436 cell line (CCK-8, 7 days). Format: cell-based. The conditions noted are these: 168 h, MDA-MB-436, 7 days, read-out: IC50 (nM), proliferation of human breast cancer cells MDA-MB-436. Put shortly: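 Seeded 3000 cells/well overnight, then exposed to test compound (0.10% DMSO control) for 7 days at 37 °C, 5% CO2, with compound-containing medium changed on day 4. CCK-8 added for 4 h; OD = A450 − A650. Survival % relative to DMSO after background subtraction, plotted against concentration for IC50.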

The target of experiment [1] is recombinant poly(ADP-ribose) polymerase 2 (PARP2) (Homo sapiens, UniProt Q9UGN5). Nature of the experiment: PARP2 chemiluminescent assay. Format: biochemical. The conditions noted are these: PARP2 enzyme activity, chemiluminescence, 40 ng enzyme/well.
Chain of recombinant poly(ADP-ribose) polymerase 2 (PARP2) (Q9UGN5 whole entry): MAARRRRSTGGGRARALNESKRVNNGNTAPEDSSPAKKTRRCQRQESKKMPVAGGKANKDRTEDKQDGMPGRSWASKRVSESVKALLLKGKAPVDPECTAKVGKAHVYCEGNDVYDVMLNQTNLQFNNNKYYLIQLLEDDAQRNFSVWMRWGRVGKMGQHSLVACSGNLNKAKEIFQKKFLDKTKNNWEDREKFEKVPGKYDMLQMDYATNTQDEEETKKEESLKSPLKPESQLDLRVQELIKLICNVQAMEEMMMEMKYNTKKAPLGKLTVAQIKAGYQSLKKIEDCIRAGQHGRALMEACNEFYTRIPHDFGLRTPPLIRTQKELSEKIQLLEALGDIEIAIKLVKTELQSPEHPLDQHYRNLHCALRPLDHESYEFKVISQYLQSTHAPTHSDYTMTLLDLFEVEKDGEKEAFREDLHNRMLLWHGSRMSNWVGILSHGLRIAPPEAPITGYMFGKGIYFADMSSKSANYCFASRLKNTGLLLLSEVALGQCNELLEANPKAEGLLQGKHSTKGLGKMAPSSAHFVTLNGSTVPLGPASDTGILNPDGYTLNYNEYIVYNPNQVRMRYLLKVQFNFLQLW
Experiment [2] has as its target recombinant poly(ADP-ribose) polymerase 1 (PARP1) (Homo sapiens, UniProt P09874). Nature of the experiment: PARP1 chemiluminescent assay. The note with it: PARP1 enzyme activity, chemiluminescence, 40 ng enzyme/well. Format: biochemical. On the procedure: The solution of recombinant poly(ADP-ribose) polymerase 1 and 2 (PARP1 and PARP2) (40 ng enzyme/well) and the compounds to be tested were mixed, respectively. The solutions were added to a 96-well plate coated with histone mixture, incubated at room temperature for 1 h, then 50 μL 0.3 ng/mL Streptavidin-HRP was added to each well. The plates were incubated for 30 minutes at room temperature. Finally, the plates were treated with streptavidin-HRP followed by addition of the ELISA ECL substrate to produce chemiluminescence that can be measured using a chemiluminescence reader. Inhibition of the tested compound to PARP1/2 enzyme activity was calculated according to the following formula. [formula] IC50 value is obtained by fitting the s-shaped dose response curve equation by using XL Fit software.

The target in the next experiment is T1, PDE3A (Homo sapiens, UniProt Q14432).
T1 construct: purchased Sino Biological 11908-H20B1
T1 sequence (Q14432 669-1141 limits assumed): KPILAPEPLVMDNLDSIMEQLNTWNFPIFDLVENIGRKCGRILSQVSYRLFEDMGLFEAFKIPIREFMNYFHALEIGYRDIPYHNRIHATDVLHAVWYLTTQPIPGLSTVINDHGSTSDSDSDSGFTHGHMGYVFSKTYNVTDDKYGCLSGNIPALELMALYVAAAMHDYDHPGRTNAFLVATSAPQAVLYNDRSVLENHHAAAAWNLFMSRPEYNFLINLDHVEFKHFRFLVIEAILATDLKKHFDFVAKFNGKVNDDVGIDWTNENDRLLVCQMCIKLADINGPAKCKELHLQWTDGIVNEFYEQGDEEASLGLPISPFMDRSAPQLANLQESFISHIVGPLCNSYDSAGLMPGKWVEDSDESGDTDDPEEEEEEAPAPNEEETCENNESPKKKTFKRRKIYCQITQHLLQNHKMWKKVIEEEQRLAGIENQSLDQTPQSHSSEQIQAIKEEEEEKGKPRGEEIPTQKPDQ
Nature of the experiment: PDE3A fluorescence polarization (FP) assay. Format: biochemical. The conditions noted are these: 2 nM PDE3A, 0.2 μM FAM-cAMP, read-out: IC50 (μM), PDE3A enzyme activity. On the procedure:
A PDE3A fluorescence polarization (FP) assay in a multi-step format was performed using black, round bottom 384-well plates (Corning, 4514). The testing compounds were serially diluted from stock solutions to 11 concentrations with a 3-fold dilution factor using DMSO. Fifty nL of compound dilutions was mixed with 5 μL of reaction buffer (10 mM Tris-HCl, pH 7.2, 10 mM MgCl2, 0.05% NaN3, 0.1% phosphate-free BSA) containing 0.2 μM FAM-cAMP (BPS, 60200) and 2 nM PDE3A (Sino Biological, 11908-H20B1) enzyme, and incubated for 60 min at 25° C. Afterwards, 15 μL binding agent mixture (Molecular Devices, R8124) was added to each well and the plate was incubated for 60 min at 25° C. The plate was loaded to a BMG PHERAstar FSX to read Fluorescence Polarization (FP) values at a setting of: Ex: 485 nm and Em: 520 nm. Emission light intensity with polarizers parallel (Em|) and emission light intensity with polarizers perpendicular (Em⊥) were recorded. The Polarization (mP) values were calculated using the following formula: mP=(SignalEm|−SignalEm⊥)/(SignalEm|+SignalEm⊥).
Data analysis: • 1) The inhibition % of a compound dose is calculated as:
[formula] • wherein mPMin and mPMax refer to the polarization readings in the condition of substrate only and substrate+enzyme, respectively. • 2) The IC50 values were calculated from non-linear curve fitting using following regression equation using a commercial curve fitting software GraphPad Prism 9.2.0.
wherein X refers to Log of compound concentration and Y refers to % Inhibition.
Table 3 summarize the inhibitory effects of compounds on PDE3A enzyme activity (IC50).
In general terms: Polarisation of emitted light reports the rotation of a fluorescent probe.

The structures appear in SMILES notation. Where only a bound is given, the exact number is not on record here.

Chain of recombinant poly(ADP-ribose) polymerase 1 (PARP1) (P09874 whole entry): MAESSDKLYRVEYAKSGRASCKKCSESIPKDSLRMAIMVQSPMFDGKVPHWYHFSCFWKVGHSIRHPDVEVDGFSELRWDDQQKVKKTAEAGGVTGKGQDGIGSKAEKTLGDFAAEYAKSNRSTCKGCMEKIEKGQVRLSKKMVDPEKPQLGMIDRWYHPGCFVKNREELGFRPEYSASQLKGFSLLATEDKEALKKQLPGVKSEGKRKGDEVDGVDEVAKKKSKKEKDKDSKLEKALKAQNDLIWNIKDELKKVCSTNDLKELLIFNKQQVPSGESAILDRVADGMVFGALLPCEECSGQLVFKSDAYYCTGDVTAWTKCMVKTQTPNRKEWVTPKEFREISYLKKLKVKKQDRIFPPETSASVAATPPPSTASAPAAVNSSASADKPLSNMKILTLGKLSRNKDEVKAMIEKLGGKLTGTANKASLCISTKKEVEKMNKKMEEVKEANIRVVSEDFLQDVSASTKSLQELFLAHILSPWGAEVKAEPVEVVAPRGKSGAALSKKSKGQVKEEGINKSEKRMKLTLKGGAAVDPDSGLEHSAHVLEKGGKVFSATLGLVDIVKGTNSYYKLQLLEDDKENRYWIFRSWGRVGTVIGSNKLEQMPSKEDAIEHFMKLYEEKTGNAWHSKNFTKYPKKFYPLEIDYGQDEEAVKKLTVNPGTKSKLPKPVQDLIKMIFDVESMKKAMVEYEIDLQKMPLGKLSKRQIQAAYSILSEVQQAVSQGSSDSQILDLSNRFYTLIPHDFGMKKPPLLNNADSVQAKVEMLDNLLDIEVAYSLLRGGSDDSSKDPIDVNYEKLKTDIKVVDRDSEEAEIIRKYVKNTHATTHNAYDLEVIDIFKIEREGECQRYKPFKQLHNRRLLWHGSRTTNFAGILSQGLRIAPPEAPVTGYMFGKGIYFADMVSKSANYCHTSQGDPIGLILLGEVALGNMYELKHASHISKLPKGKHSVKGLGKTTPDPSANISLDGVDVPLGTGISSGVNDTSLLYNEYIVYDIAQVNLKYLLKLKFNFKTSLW

In the case of `CNC(=O)c1ccc(-n2cc3c(n2)CN(Cc2ccc4c([nH]c(=O)c5c(C(F)(F)F)cnn54)c2F)C3)cn1` [Example 25, 5-(5-((6-fluoro-4-oxo-3-(trifluoromethyl)-4,5-dihydropyrazolo[1,5-a]quinoxalin-7-yl)methyl)-5,6-dihydropyrrolo[3,4-c]pyrazol-2(4H)-yl)-N-methylpicolinamide], the results for the IC50 (with MDA-MB-436 cells; in experiment [1]; in experiment [2]) were 4.75 nM, 21 nM and 0.26 nM, respectively.
Turning to `CCNC(=O)c1ccc(-n2cc3c(n2)CN(Cc2ccc4c([nH]c(=O)c5occc54)c2F)C3)c(F)n1` [Example 55, N-ethyl-6-fluoro-5-(5-((6-fluoro-4-oxo-4,5-dihydrofuro[2,3-c]quinolin-7-yl)methyl)-5,6-dihydropyrrolo[3,4-c]pyrazol-2(4H)-yl)picolinamide], the figures for the IC50 (with MDA-MB-436 cells; on PDE3A; in experiment [1]) were 0.81 nM, > 30 µM and 403 nM, respectively.
The matching figures for `CCNC(=O)c1ccc(-n2cc3c(n2)CN(Cc2ccc4c([nH]c(=O)c5cc(F)nn54)c2F)C3)c(F)n1` [Example 57, 5-(5-((2,6-difluoro-4-oxo-4,5-dihydropyrazolo[1,5-a]quinoxalin-7-yl)methyl)-5,6-dihydropyrrolo[3,4-c]pyrazol-2(4H)-yl)-N-ethyl-6-fluoropicolinamide]: 1.56 nM, > 30 µM and > 10000 nM.
